These results are taken from publication PMC5847527, “Identification of a novel 2-oxindole fluorinated derivative as in vivo antitumor agent for prostate cancer acting via AMPK activation” (Scientific Reports, 2018).

Data set [1] can be described thus: Tolerability in PC-3 xenograft mice (weight, serum parameters, liver). Particulars: 5 mg/Kg daily, 15 days. It counts as in vivo. The text has this: To validate the therapeutic value of the compound 8c against castration-resistant prostate cancer a murine xenograft model was employed. Due to the potent effect of compound 8c on the aggressive PC-3 cell line and in order to avoid unnecessary wasting of animals according to the 3 Rs guidelines (reduction, replacement, refinement) for the use of animals in research, we only use PC-3 cells for the in vivo studies. PC-3 tumors were induced in nude mice by subcutaneous injection of cells in the right flank of the mouse. When tumors reached a 70 mm^3 volume, mice were daily treated with 5 mg/Kg of compound 8c. In vehicle-treated mice, an increase in tumor growth volume was observed during the course of the study and at the end of experimentation (Fig. 8A).
Male immunodeficient nude-Foxn1 (nu/nu) mice (Envigo RMS, Barcelona, Spain), 4 to 6 week old, were used for all xenograft studies. […] Tumors were measured with external calipers and volume was calculated by the modified ellipsoidal formula as volume = length × (width)^2 × 0.52 mm^3 [52],[53]. At the end of the study, the mice were sacrificed by placing them in a CO2 gas-filled chamber, and the excised tumors were recovered and homogenized in lysis buffer for protein quantification and Western blotting. […]

Another data set concerns the target T1, AMPK (Homo sapiens, UniProt Q13131).
T1 construct: endogenous in cells; host or cells: PC-3, DU145, LNCaP
Kind of data set: AMPK and ACC phosphorylation by Western blot in PC-3 cells. In kind it is cell-based. To be noted: 25 µM, 1 hour. An excerpt:
To investigate the effect of the compounds on AMPK activity at cellular level, compounds 8a-c and 9a-b were selected to perform AMPK phosphorylation assays in human prostate cancer cell lines. We use the PC-3 cell line as it is androgen-resistant and represents the advanced and aggressive stage of prostate cancer. […] AMPK inhibits lipogenic pathway through phosphorylation of its well-known substrate acetyl-CoA carboxylase (ACC). To confirm the modulation of AMPK activity in prostate cells by the compounds, we determined levels of phosphorylated ACC in 2-oxindole fluorinated derivatives-treated cells. […] It is worthy to note that the highest ACC phosphorylation was obtained with compound 8c denoting a powerful activity of this compound in PC-3 cells.
Figure 2 Effect of 2-oxindole fluorinated derivatives on AMPK activity in prostate cancer cells. (A) PC-3, DU145 and LNCaP cells were treated with 25 µM of the selected 2-oxindole fluorinated derivatives for 1 hour. Levels of the phosphorylated AMPK (pAMPK), phosphorylated ACC (pACC) and their total forms were determined by Western blot. Upper panel, a representative Western blot of three different experiments. β-tubulin (β-Tub) serves as a loading control. […] Lower panels, densitometric analyses of bands represented as the mean of the ratio pAMPK/AMPK or pACC/ACC ± SD of three different experiments. *p < 0.05 compared with the controls by one-way ANOVA followed by Fisher’s LSD test; ^#p < 0.05 compared with 2-oxindole fluorinated derivates or with the AMPK activators AMP or A769662 by one-way ANOVA followed by Tukey test.
Human prostate cancer epithelial PC-3, DU145 and LNCaP and human prostate normal RWPE-1 cells were purchased from American Type Culture Collection (ATCC CRL-1435 CRL-1740 and CRL 11609 respectively) (Rockville, MD, USA). The human prostate normal PNT2 cell line was purchased to ECACC (European Collection of Cell cultures, Salisbury, SP4 0JG, UK). Cells were routinely grown in RPMI 1640 medium supplemented with 100 IU/ml penicillin G sodium, 100 µg/ml streptomycin sulfate, 0.25 µg/ml amphotericin B (Invitrogen, Paisley, UK) and 10% fetal calf serum. Cells were used at passages between 10–20. For treatment experiments, cells were plated and grown over night, the medium was then replaced with serum-free RPMI 1640 for 24 hours and then incubated with different doses of the compounds for the indicated times.
Cells were lysed in Lysis buffer (50 mM Tris pH 7.4, 0.8 M NaCl, 5 mM MgCl2, 0.1% Triton X-100) containing Protease Inhibitor and Phosphatase inhibitor Cocktails (Roche, Basel, Switzerland). Protein concentrations were measured by BioRad™ protein assay kit (Richmond, CA, USA). Equal amount of protein (20 μg) from each sample was separated on 8% SDS–PAGE gels and transferred to PVDF membranes (BioRad). The membranes were blocked with blocking buffer (1× TBS, 0.1% Tween 20 with 5% w/v fat-free dry milk), washed and incubated with primary antibodies at 4 °C for 12 h. The membranes were subsequently washed with TBS-T (1× TBS and 0.1% Tween 20) and incubated with horseradish peroxidase-conjugated anti-mouse or anti-rabbit IgG antibodies (Sigma, St Louis, MO, USA) at room temperature for 1 h. The immune complex was visualized with an ECL system (Cell Signaling Technology). Films were analyzed by densitometry. The anti-pAMPKα1-thr172, pACC-ser79, pP53, P21, pRaptor and the antibodies against the corresponding total forms were obtained from Cell Signaling Technology (Danvers, MA, USA). The anti-caspase 3 and anti-procaspase 3 were from Santa Cruz Biotechnology (Dallas, Texas, USA). The anti-HIF1A was from Novus Biologicals LLC (Littleton, CO, USA). The anti-Cyclin D1 antibody was obtained from ThermoFisher (Alcobendas, Madrid, Spain). All the other chemicals were obtained from Sigma (St. Louis, MO, USA).

T1 sequence (Q13131 whole entry): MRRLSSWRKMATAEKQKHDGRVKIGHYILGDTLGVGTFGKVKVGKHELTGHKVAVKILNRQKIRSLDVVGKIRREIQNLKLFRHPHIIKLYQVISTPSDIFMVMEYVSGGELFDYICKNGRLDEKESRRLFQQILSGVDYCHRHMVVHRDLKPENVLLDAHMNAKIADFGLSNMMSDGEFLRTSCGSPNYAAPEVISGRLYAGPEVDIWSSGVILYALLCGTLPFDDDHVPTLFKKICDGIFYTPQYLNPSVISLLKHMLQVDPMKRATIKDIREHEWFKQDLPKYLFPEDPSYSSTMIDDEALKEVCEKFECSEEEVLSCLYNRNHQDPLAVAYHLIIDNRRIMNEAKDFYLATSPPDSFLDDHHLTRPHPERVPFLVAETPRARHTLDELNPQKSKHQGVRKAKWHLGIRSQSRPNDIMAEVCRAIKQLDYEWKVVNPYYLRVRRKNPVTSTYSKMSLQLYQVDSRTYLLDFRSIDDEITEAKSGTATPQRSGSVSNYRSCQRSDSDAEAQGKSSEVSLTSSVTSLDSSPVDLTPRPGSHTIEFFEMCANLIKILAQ
T1 sequence (Q9Y478 2-270 partner limits assumed): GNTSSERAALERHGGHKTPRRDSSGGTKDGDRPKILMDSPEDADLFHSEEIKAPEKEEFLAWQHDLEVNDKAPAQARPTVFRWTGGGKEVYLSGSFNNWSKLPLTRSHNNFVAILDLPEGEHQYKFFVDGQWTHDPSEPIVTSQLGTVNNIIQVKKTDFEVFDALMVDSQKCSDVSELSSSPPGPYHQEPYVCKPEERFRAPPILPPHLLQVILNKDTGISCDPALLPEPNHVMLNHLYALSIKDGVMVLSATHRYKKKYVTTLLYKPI
T1 sequence (P54619 whole entry partner): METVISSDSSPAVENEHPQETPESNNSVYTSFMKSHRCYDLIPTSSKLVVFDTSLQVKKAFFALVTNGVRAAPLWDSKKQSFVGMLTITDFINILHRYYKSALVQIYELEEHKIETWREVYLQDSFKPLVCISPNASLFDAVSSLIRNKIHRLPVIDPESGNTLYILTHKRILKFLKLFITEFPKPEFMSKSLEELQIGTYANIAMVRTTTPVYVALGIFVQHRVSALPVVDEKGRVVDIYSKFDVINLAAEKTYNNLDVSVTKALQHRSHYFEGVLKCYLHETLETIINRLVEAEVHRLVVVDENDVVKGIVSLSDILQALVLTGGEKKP

As to `O=C1Nc2ccccc2C1(F)Cc1ccc(-c2ccccc2)o1` (stereo not shown) [Compound 8c, 3-fluoro-3-((5-phenylfuran-2-yl)methyl)indolin-2-one], in data set [1], the liver morphology entry was “Liver morphology was normal” and the “mice weight or animal welfare” value is “No effect on mice weight or animal welfare”. Also, the “ACC phosphorylation (pACC/ACC)” value on AMPK is listed as “augmented pACC”. Besides, on AMPK (compared to controls), the “Thr172 phosphorylation of AMPK (pAMPK/AMPK)” value was “significant increase in Thr172 phosphorylation of AMPK”.
